Laboratory results taken from patent publication US12661384B2, “Methods for inducing cell division of postmitotic cells” (priority 2015, dated 2026).

Tested on: Human embryonic stem cell-derived cardiomyocytes
Experiment: Screen of factor cocktails: PHH3 staining and total nuclei
Format: cell-based
Method: To determine an optimal cocktail of factors for inducing cell proliferation and/or cell cycle reentry of human postmitotic cardiomyocytes, combinations of factors were screened. […] Cells were treated with combinations of CDK1AF, CDK4, CCNB1, CCND1, AURKB or GFP control adenovirus, with or without combinations of TGF-βi (SB431542, “SB”), a […] (MK1775, “MK”), and IGF1. Analysis was performed to identify cocktails of factors that increased the number of cells undergoing mitosis as assessed by increased phospho-histone H3 staining at 4-, 8-, and 12-days after treatment with factor cocktails. FIG. 10, panel A. Analysis was also performed to identify which cocktails of factors had the highest cell survival as assessed by the increase in total number of nuclei. FIG. 10, panel B.

Row | SMILES | replacement of factors in the cocktail (activation of CDK1 with small molecule) | cell survival (total number of nuclei) (4, 8 and 12 days after treatment)
1 | C=CCn1c(=O)c2cnc(Nc3ccc(N4CCN(C)CC4)cc3)nc2n1-c1cccc(C(C)(C)O)n1 [MK1775] | could replace CDK1 and CCNB1 from the cocktail | –
2 | NC(=O)c1ccc(-c2nc(-c3ccc4c(c3)OCO4)c(-c3ccccn3)[nH]2)cc1 [SB431542] | – | enhanced survival
